Results: paper doi:10.1101/362830v1 (biorxiv, 2018)

Assays:
Format in all cases: biochemical
D14 [1] = biological target: T1, D14 (Oryza sativa, UniProt Q10QA5); assay: fluorogenic hydrolysis, ex […] nm, em […] nm; details: read-out: Km^YLG; 100 mM PBS pH 7.3, 0.1% DMSO, 30 °C; no inhibitor
T1 sequence (Q10QA5 54-318): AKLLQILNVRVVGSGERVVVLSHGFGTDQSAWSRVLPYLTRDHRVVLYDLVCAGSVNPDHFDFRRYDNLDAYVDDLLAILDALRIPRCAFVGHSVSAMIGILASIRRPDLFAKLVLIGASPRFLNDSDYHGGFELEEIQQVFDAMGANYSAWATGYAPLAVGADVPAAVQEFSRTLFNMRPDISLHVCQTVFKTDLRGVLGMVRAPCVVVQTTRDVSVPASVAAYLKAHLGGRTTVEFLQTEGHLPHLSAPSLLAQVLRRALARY

D14 [2] = biological target: T1, D14; assay: inhibition of YLG hydrolysis, fluorescence
ShHTL7 = biological target: T2, ShHTL7 (Striga hermonthica, UniProt A0A0M3PNA2); assay: inhibition of YLG hydrolysis, fluorescence
T2 sequence (A0A0M3PNA2 1-271): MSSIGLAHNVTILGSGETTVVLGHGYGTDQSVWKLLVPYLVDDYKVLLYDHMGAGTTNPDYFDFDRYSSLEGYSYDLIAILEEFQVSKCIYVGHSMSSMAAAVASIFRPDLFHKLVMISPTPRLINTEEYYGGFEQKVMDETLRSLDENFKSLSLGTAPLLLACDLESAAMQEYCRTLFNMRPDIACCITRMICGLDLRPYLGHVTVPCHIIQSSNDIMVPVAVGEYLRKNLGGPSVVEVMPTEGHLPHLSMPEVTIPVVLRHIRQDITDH

| Km (D14 [1]) [µM] | IC50 (D14 [2]) [µM] | IC50 (ShHTL7) [µM] | SMILES |
| --- | --- | --- | --- |
| 1.84 |  |  | CCOC(=O)c1ccccc1-c1c2ccc(=O)cc-2oc2cc(OC3C=C(C)C(=O)O3)ccc12 (centres unmarked) [Yoshimulactone Green] |
|  | 5.8 | 0.15 | CC1=C[C@@H](O/C=C2/C(=O)O[C@@H]3c4ccccc4C[C@H]23)OC1=O [GR24] |
|  | 7.9 |  | O=C(N1CCc2ccccc21)n1nccn1 [compound 26, indolin-1-yl(2H-1,2,3-triazol-2-yl)methanone] |
|  | 1.8 |  | O=C(N1CCc2ccccc21)n1ccnn1 [compound 26, indolin-1-yl(1H-1,2,3-triazol-1-yl)methanone] |
